Measurements published in patent publication US20240000075A1, “FUNGICIDAL ARYL AMIDINES” (CORTEVA AGRISCIENCE LLC, priority 2020, published 2024).
Like-named read-outs stand apart in the source and are kept apart here.

Legend:
[1] = test system: Phakopsora pachyrhizi; assay: Asian soybean rust, whole-plant fungicidal activity (PHAKPA); assay type: in vivo; details: read-out: % Disease Control Rating PHAKPA
Method: Example C: Evaluation of Fungicidal Activity: Asian Soybean Rust (Phakopsora pachyrhizi; Bayer Code […]) Technical grades of materials were dissolved in acetone, which were then mixed with nine volumes of H2O containing 0.011% Tween-20. The fungicide solutions were applied onto soybean seedlings using an automated booth sprayer to run-off. All sprayed plants were allowed to air dry prior to further handling. Soybean plants (variety 'Williams 82') were grown in soil-less potting mix, with one plant per pot. Ten-day-old seedlings were used for testing. Plants were inoculated as described in Example A. Plants were incubated for 24 h in a dark dew room with 100% relative humidity then transferred to a growth room for disease to develop. Fungicide formulation and application were made as described in Example A. When disease symptoms were fully expressed, disease severity was assessed on the sprayed leaves on a scale of 0 to 100 percent. Percent disease control was calculated using the ratio of disease severity on treated plants relative to untreated plants.

[2] = test system: Puccinia triticina; assay: Wheat brown rust, whole-plant fungicidal activity (PUCCRT); assay type: in vivo, Puccinia triticina on wheat plants (variety 'Yuma'); details: 24 h, 1DP (1 day protectant), read-out: % Disease Control Rating PUCCRT
Method: Technical grades of materials were dissolved in acetone, which were then mixed with nine volumes of water (H2O) containing 110 ppm Triton X-100. The fungicide solutions were applied onto wheat seedlings using an automated booth sprayer to run-off. All sprayed plants were allowed to air dry prior to further handling. All fungicides were evaluated using the aforementioned method for their activity vs. all target diseases, unless stated otherwise.
Example B: Evaluation of Fungicidal Activity: Wheat Brown Rust (Puccinia triticina; Synonym: Puccinia recondita f sp. tritici; Bayer Code PUCCRT)
Wheat plants (variety ‘Yuma’) were grown from seed in a greenhouse in soil-less potting mix until the first leaf was fully emerged, with 7-10 seedlings per pot. These plants were inoculated with an aqueous spore suspension of Puccinia triticina after fungicide treatments. After inoculation, the plants were kept in a dark dew room with 100% relative humidity overnight to permit spores to germinate and infect the leaf. The plants were then transferred to a greenhouse for disease to develop. Fungicide formulation, application and disease assessment followed the procedures as described in Example A.

[3] = test system: Rhynchosporium commune; assay: Leaf blotch of barley, whole-plant fungicidal activity (RHYNSE); assay type: in vivo; details: 24 h, 1DP (1 day protectant), read-out: % Disease Control Rating RHYNSE
Method: Technical grades of materials were dissolved in acetone, which were then mixed with nine volumes of water (H2O) containing 110 ppm Triton X-100. The fungicide solutions were applied onto wheat seedlings using an automated booth sprayer to run-off. All sprayed plants were allowed to air dry prior to further handling. All fungicides were evaluated using the aforementioned method for their activity vs. all target diseases, unless stated otherwise. Example D: Evaluation of Fungicidal Activity: Leaf Blotch of Barley (Rhynchosporium commune; Bayer Code […]) Barley plants (variety 'Harrington') were grown from seed in a greenhouse in soil-less potting mix until the first leaf was fully emerged, with 7-10 seedlings per pot. These plants were inoculated with an aqueous spore suspension of Rhynchosporium commune after fungicide treatments. After inoculation, the plants were kept in a dark dew room with 100% relative humidity for two days to permit spores to germinate and infect the leaf. The plants were then transferred to a greenhouse for disease to develop. Fungicide formulation and application were made as described in Example A. Disease assessment was conducted as described in Example A.

[4] = test system: Zymoseptoria tritici; assay: Septoria leaf blotch of wheat, whole-plant fungicidal activity (SEPTTR); assay type: in vivo, Zymoseptoria tritici on wheat plants (variety 'Yuma'); details: read-out: % Disease Control Rating SEPTTR
Method: Example A: Evaluation of Fungicidal Activity: Septoria Leaf Blotch of Wheat (Zymoseptoria tritici; Bayer Code […]) Technical grades of materials were dissolved in acetone, which were then mixed with nine volumes of water (H2O) containing 110 ppm Triton X-100. The fungicide solutions were applied onto wheat seedlings using an automated booth sprayer to run-off. All sprayed plants were allowed to air dry prior to further handling. All fungicides were evaluated using the aforementioned method for their activity vs. all target diseases, unless stated otherwise. Wheat plants (variety 'Yuma') were grown from seed in a greenhouse in soil-less potting mix until the first leaf was fully emerged, with 7-10 seedlings per pot. These plants were inoculated with an aqueous spore suspension of Zymoseptoria tritici either 3 days prior to fungicide treatment (3 day curative; 3DC) or 1 day after fungicide treatment (1 day protectant; 1DP). After inoculation the plants were kept in 100% relative humidity for three days to permit spores to germinate and infect the leaf. The plants were then transferred to a greenhouse for disease to develop. When disease symptoms were fully expressed on the 1st leaves of untreated plants, infection levels were assessed on a scale of 0 to 100 percent disease severity. Percent disease control was calculated using the ratio of disease severity on treated plants relative to untreated plants.

| SMILES | pest or weed control at 200 ppm ([1]; 24 h, 1DP (1 day protectant)) | pest or weed control at 200 ppm ([1]; 72 h, 3DC (3 day curative)) | pest or weed control at 200 ppm [2] | pest or weed control at 200 ppm [3] | pest or weed control at 200 ppm ([4]; 24 h, 1DP (1 day protectant)) | pest or weed control at 200 ppm ([4]; 72 h, 3DC (3 day curative)) |
| --- | --- | --- | --- | --- | --- | --- |
| Cc1cc(C(=O)CC2CCCCC2)c(C)cc1/N=C(\S)N(C)C1CCCCC1 [Compound 48] | < 20% | < 20% | < 20% | < 20% | < 20% | < 20% |
| Cc1cc(C(=O)CC2CCCCC2)c(C)cc1/N=C(\S)N1CCCC1 [Compound 49] | > 85% | 50 to 85% | > 85% | < 20% | 20 to 50% | < 20% |
| Cc1cc(C(=O)CC2CCCCC2)c(C)cc1/N=C(\S)N1CCCCC1 [Compound 50] | > 85% | > 85% | > 85% | < 20% | > 85% | 20 to 50% |
| Cc1cc(C(=O)CC2CCCCC2)c(C)cc1/N=C(\S)N(C)c1ccccc1 [Compound 51] | < 20% | < 20% | < 20% | < 20% | 20 to 50% | < 20% |
| Cc1cc(C(=O)CC2CCCCC2)c(C)cc1/N=C(\S)N(C)C [Compound 52] | > 85% | 50 to 85% | > 85% | < 20% | 20 to 50% | < 20% |
| Cc1cc(C(=O)CC2CCCCC2)c(C)cc1/N=C(\S)N(C)Cc1ccccc1 [Compound 53] | < 20% | < 20% | < 20% | < 20% | < 20% | < 20% |
| Cc1cc(C(=O)CC2CCCCC2)c(C)cc1/N=C(\S)N(C)C1CC1 [Compound 54] | > 85% | 50 to 85% | > 85% | < 20% | > 85% | < 20% |
| CCN(CC)/C(S)=N/c1cc(C)c(C(=O)CC2CCCCC2)cc1C [Compound 55] | > 85% | > 85% | > 85% | < 20% | 50 to 85% | < 20% |
| Cc1cc(C(=O)CC2CCCCC2)c(C)cc1/N=C/N(C)Cc1ccccc1 [Compound 56] | < 20% | < 20% | 20 to 50% | < 20% | < 20% | < 20% |
| Cc1cc(C(=O)CC2CCCCC2)c(C)cc1/N=C/N(C)C [Compound 57] | > 85% | > 85% | > 85% | < 20% | 50 to 85% | < 20% |
| CCN(/C=N/c1cc(C)c(C(=O)CC2CCCCC2)cc1C)CC [Compound 58] | > 85% | > 85% | > 85% | < 20% | 50 to 85% | < 20% |
| Cc1cc(C(=O)CC2CCCCC2)c(C)cc1/N=C/N(C)C(C)C [Compound 59] | > 85% | > 85% | > 85% | > 85% | > 85% | > 85% |
| Cc1cc(C(=O)CC2CCCCC2)c(C)cc1/N=C/N(C)C1CC1 [Compound 60] | < 20% | < 20% | > 85% | < 20% | < 20% | < 20% |
| CCN(C)/C(S)=N/c1cc(C)c(C(=O)CC2CCCCC2)cc1C [Compound 61] | > 85% | > 85% | > 85% | > 85% | > 85% | < 20% |
| CCN(C)/C=N/c1cc(C)c(C(=O)Cc2ccc(C)cc2C)cc1C [Compound 62] | > 85% | 20 to 50% | > 85% | > 85% | > 85% | 50 to 85% |
| CCN(C)/C=N/c1cc(C)c(C(=O)Cc2ccc(C(F)(F)F)cc2)cc1C [Compound 63] | > 85% | > 85% | > 85% | > 85% | > 85% | 20 to 50% |
| CCCc1ccc(CC(=O)c2cc(C)c(/N=C/N(C)CC)cc2C)cc1 [Compound 64] | > 85% | > 85% | > 85% | > 85% | 50 to 85% | < 20% |
| CCN(C)/C=N/c1cc(C)c(C(=O)Cc2ccc(SC(F)(F)F)cc2)cc1C [Compound 65] | > 85% | > 85% | > 85% | > 85% | > 85% | 20 to 50% |
